Entries after “also recorded” stand apart in the source; their conditions may differ.
Legend:
[1] = caused by microbial infections including P. acnes; salicylic acid alone; cited from earlier work
[2] = reversal of corticosteroid unresponsiveness in psoriasis; assay type: in vivo, human; details: added once daily to corticosteroid twice daily; seven patients
Method: To determine the therapeutic responsive effect of an aryl 2-acetoxyethanoicacid against psoriasis seven patient participated in this study. A test composition was prepared by dissolving 1 g phenyl 2-acetoxyethanoic acid or diphenyl 2-acetoxyethanoic acid in 2 ml ethanol. The solution thus obtained was mixed with 60 g petrolatum and 37 g mineral oil. The anhydrous ointment thus formulated was packaged in one-ounce jars.
When the drug unresponsiveness to a corticosteroid occurred, the participating patients were instructed to apply in addition the test composition once daily to the lesions on the left side of the body only. Topical applications of the corticosteroid were continued twice daily to both sides of the body. […] While psoriatic lesions on the right side of the body remained unresponsive to the topical corticosteroid, the lesions on the left side started to clear after 3 to 4 weeks of additional topical application with the composition containing an aryl 2-acetoxyethanoic acid.
At this time the patients were instructed to shift the additional topical application to the lesions on the right side instead of the left side of the body. The psoriatic lesions on the right side of the body began to clear after 3 to 4 weeks of additional topical application with the composition containing aryl 2-acetoxyethanoic acid.

[3] = topical treatment of nail infections; assay type: in vivo, human; details: non-synergistic composition, twice daily
Excerpt: The participating subjects in the present study were instructed to apply twice daily the composition containing phenyl 2-acetoxyethanoic acid or diphenyl 2-acetoxyethanoic acid with or without clotrimazole as an additional antimicrobial agent.
In order to determine the antimicrobial effect of an aryl 2-acetoxyethanoicacid, a standard test method of Minimum Inhibitory Concentration (MIC) against the growth of 10 bacteria was used. To determine a prophylactic effect against the development of, as well as a topical effect in the treatment of, body foul door, eleven human subjects participated in this study. […] Scientific and test results are overviewed as follows.

[4] = prophylactic effect in preventing the development of axillary foul odor; assay type: in vivo, human; details: Example 5; 0.5% solution, topical; one person; up to 24 hours
Method: A typical test for prophylactic effect in preventing the development of axillary foul odor was carried out as follows. A test composition was prepared by dissolving 0.5 g of phenyl 2-acetoxyethanoic acid or diphenyl 2-acetoxyethanoic acid in 70 ml of ethanol and 30 ml of propylene glycol. The control vehicle was prepared by mixing 70 ml of ethanol and 30 ml of propylene glycol. A human subject was instructed to take a shower in the morning using ordinary soap to clean the body surfaces. After the skin was dried, the test composition was topically applied to the left underarm area only. The vehicle control was topically applied to the right underarm area. Both underarm areas were monitored by the subject and at least one other person approximately every 8 hours to determine whether the test composition had any prophylactic effect in preventing the development of underarm foul odor in the left axilla as compared to the vehicle alone on the right control armpit.
Presence or substantial absence of foul odor, detected by smell, was adopted as the criteria for ineffectiveness or effectiveness of the test composition.
A total of seven subjects (four females; three males) participated in several studies. Most of these subjects could not use existing commercial products of antiperspirants or deodorants because of severe irritation after topical application. […]

[5] = topical treatment of folliculitis and perifolliculitis; assay type: in vivo, human; details: 0.9%, twice daily; nine patients
Method: Nine patients having various degrees of folliculitis and perifolliculitis participated in this study. A test composition containing 0.9% phenyl 2-acetoxyethanoic acid or diphenyl 2-acetoxyethanoic acid was prepared by dissolving 0.9 g compound in 79.1 ml 2-propanol, 15 ml butane-1,3-diol and 5 ml nonoxynol-6. The composition was packaged in one-ounce bottles. The patients were instructed to apply the test composition twice daily on the infected skin lesions and involved areas. Topical applications were continued up to 8 weeks.

[6] = axillary antiodor effectiveness (treatment); assay type: in vivo, human; details: 0.5%
Excerpt: In another study the subjects were instructed not to take a shower in the morning. After the foul odor developed in both axillae, the subjects were instructed to apply the test composition containing 0.5% phenyl 2-acetoxyethanoic acid or diphenyl 2-acetoxyethanoic acid on the left underarm area and the control vehicle on the right underarm area. Topical applications were made once daily for several days.
Usually the left underarm ceased emanating any detectable foul odor after 1 day of topical use. The subjects were instructed at this time to apply the test composition containing 0.5% phenyl 2-acetoxyethanoic acid or diphenyl 2-acetoxyethanoic acid on the right underarm area also. Topical applications were made once daily for several days. The right axilla ceased to emanate any detectable foul odor after 1 to 2 days of topical use.

[7] = treatment of oral infections; assay type: in vivo, human; details: 2% composition diluted to 0.1%; oral rinse twice daily
Method: Compositions for treatment of oral infections may contain an aryl 2-acetoxyethanoic acid as the only active ingredient. In this case a phenyl 2-acetoxyethanoic acid or diphenyl 2-acetoxyethanoic acid 2% composition was formulated by dissolving the active ingredient 2 g in ethanol 78 ml and propylene glycol 20 ml. Before use, this composition was diluted to 0.1% with water by mixing one part of the composition with 19 parts of water. The treatment involves oral rinse, wash and gargle by keeping the diluted composition inside the oral cavity for a few minutes, and then spit out. Such procedure may be repeated twice daily for several days until the infection is eradicated usually within 5-7 days.

SMILES: O=C(O)c1ccccc1O [salicylic acid]
- effect against acne lesions associated with whiteheads [1]: not therapeutically effective against acne lesions associated with whiteheads

SMILES: CC(=O)OC(C(=O)O)(c1ccccc1)c1ccccc1 [diphenyl 2-acetoxyethanoic acid]
- onset of improvement of psoriatic lesions, left side [2]: began to improve after one week
- disappearance of nail infections [3]: usually disappeared within one to several months
- prevention of axillary foul odor (left underarm) [4]: did not produce any detectable odor, even after 24 hours; also recorded: substantially effective in preventing the development of axillary foul odor
- deeper lesions of papules [5]: eradicated or substantially improved after 4 to 8 weeks of topical applications
- superficial folliculitis and perifolliculitis lesions [5]: eradicated or substantially improved after a few days of topical applications
- overall axillary antiodor effectiveness ([6]; topical): topically effective in eradicating the axillary foul odor
- left axilla on continued use ([6]; continued, once daily for several days): continued to maintain the condition free of any offensive foul odor
- time after which left underarm usually ceased emanating any detectable foul odor ([6]; no-shower study, left side): 1 days
- intensity of foul odor, left underarm ([6]; no-shower study, once daily): diminished in intensity of foul odor after one to two days of topical application
- time after which left underarm ceased emanating any detectable foul odor ([6]; Example 6, once daily, one person, left side): 1 days
- time after which right axilla ceased to emanate any detectable foul odor ([6]; Example 6, right side, formerly vehicle): 1 days
- time within which oral infection is usually eradicated [7]: 5 to 7 days
